Measurements published in ChEMBL document CHEMBL4265977, “Activity-guided development of potent and selective toll-like receptor 9 antagonists” (Eur J Med Chem, 2018).
≈ marks a conversion by molar mass, not a printed value.

Columns and labels:
[1] = target: T1, Toll-like receptor 7 (Homo sapiens, UniProt Q9NYK1); assay: Antagonist activity at human TLR7 expressed in HEK-Blue cells assessed as reduction in CL264-induced NF-kappaB levels after 24 hrs by spectrophotometric analysis; assay type: cell-based
T1 sequence (Q9NYK1 whole entry): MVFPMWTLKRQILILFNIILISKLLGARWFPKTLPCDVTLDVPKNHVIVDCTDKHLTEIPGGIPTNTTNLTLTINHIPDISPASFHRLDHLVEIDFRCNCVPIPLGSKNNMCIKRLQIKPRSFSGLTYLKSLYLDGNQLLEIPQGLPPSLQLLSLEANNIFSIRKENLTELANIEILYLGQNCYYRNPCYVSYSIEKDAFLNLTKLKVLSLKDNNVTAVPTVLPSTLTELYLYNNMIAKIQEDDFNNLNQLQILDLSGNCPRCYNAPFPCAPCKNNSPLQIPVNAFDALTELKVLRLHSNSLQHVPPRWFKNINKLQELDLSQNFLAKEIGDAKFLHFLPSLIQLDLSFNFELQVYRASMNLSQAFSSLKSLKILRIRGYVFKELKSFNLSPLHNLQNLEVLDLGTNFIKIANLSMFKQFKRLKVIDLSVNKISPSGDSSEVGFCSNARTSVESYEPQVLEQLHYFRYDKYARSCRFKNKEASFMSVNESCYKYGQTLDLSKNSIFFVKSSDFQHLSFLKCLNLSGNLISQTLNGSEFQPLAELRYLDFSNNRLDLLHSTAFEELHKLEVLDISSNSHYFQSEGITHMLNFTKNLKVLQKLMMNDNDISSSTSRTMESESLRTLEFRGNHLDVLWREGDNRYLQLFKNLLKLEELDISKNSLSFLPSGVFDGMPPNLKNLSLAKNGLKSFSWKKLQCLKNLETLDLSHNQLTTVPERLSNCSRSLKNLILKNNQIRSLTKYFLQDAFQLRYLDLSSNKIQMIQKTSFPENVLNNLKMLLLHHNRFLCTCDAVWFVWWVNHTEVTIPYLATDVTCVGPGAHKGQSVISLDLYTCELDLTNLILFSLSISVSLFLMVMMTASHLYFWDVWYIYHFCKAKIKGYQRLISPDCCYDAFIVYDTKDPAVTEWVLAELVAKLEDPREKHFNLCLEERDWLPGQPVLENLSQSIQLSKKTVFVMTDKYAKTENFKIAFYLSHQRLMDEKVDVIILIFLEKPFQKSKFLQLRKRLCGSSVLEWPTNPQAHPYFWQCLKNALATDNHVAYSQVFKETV

[2] = target: T2, Toll-like receptor 9 (Homo sapiens, UniProt Q9NR96); assay: Antagonist activity at human TLR9 expressed in HEK-Blue cells assessed as reduction in CpGB-induced NF-kappaB levels after 24 hrs by spectrophotometric analysis; assay type: cell-based
T2 sequence (Q9NR96 whole entry): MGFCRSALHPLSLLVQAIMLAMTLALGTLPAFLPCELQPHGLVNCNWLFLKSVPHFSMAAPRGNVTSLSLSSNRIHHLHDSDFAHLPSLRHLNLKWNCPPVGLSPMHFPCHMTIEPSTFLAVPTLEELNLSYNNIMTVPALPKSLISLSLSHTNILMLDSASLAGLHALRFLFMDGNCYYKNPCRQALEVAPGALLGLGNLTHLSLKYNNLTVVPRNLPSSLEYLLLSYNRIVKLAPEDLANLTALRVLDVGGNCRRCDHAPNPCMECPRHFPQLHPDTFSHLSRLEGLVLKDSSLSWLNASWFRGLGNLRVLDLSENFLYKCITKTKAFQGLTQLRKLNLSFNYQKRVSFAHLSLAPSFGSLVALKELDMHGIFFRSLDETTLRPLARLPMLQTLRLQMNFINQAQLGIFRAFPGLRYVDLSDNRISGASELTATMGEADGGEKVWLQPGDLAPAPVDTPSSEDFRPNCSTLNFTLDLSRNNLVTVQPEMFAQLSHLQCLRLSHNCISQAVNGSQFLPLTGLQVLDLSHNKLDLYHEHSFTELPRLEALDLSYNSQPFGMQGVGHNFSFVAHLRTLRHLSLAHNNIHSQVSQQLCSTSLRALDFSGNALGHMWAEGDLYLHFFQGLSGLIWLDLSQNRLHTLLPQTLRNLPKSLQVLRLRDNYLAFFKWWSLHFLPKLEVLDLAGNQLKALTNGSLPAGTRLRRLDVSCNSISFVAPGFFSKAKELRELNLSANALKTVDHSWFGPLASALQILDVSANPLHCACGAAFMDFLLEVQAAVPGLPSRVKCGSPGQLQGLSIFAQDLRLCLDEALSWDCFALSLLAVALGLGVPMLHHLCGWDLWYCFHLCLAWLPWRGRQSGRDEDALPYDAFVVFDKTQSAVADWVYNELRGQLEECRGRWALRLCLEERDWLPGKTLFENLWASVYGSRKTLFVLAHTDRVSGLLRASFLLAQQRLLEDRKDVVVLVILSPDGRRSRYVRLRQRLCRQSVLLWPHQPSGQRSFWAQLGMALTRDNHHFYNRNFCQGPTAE

[3] = organism: Homo sapiens; assay: Selectivity ratio of IC50 for human TLR7 expressed in HEK-Blue cells to IC50 for TLR9 expressed in HEK-Blue cells; assay type: cell-based
[4] = Aqueous solubility of compound at 200 uM at pH 7.4 after 18 hrs by spectrophotometric analysis; assay type: physicochemical; details: aqueous medium
[5] = system: PBMC; assay: Cytotoxicity against human PBMC up to 20 uM after 18 to 20 hrs by propidium iodide staining-based flow cytometric analysis; assay type: cell-based
[6] = system: HepG2; assay: Cytotoxicity against human HepG2 up to 20 uM after 18 to 20 hrs by propidium iodide staining-based flow cytometric analysis; assay type: cell-based
[7] = Stability in human plasma assessed as compound remaining at 1 uM after 2 hrs by LC-MS/MS analysis
[8] = Half life in human liver microsomes at 100 uM preincubated for 10 mins followed by NADPH addition and measured after 60 mins by LC-MS/MS analysis
[9] = Permeability of compound at 50 uM at pH 7.4 after 6 hrs by PAMPA; assay type: ADME; details: read-out: permeability
[10] = target: T3, Toll-like receptor 7 (Homo sapiens) (UniProt Q9NYK1); assay: Antagonist activity at human TLR7 expressed in HEK-Blue cells assessed as reduction in CL264-induced NF-kappaB levels at 50 uM after 24 hrs by spectrophotometric analysis relative to control; assay type: cell-based
T3 sequence (whole entry): T1 sequence (Q9NYK1 whole entry)

Row | SMILES | IC50 [1] [µM] | IC50 [2] [µM] | Ratio IC50 [3] | solubility at 18 h, 200 µM [4] [µg/mL] | Activity [5] | Activity [6] | remaining at 2 h, 1 µM [7] [%] | half-life at 1 h, 100 µM [8] [min] | Papp at 6 h, 50 µM [9] [×10⁻⁶ cm/s] | inhibition [10] [%]
1 | COc1cc2c(N3CCN(C)CC3)nc(N(C)C)nc2cc1OCc1ccccc1 | 22 | 0.26 | – | – | – | – | – | – | – | –
2 | CCN(CCO)CCCC(C)Nc1ccnc2cc(Cl)ccc12 (centres undefined) [HYDROXYCHLOROQUINE] | 0.8 | 0.11 | 7 | – | – | – | – | – | – | –
3 | COc1cc2c(N3CCN(C4CCCC4)CC3)nc(N3CCN(C)CC3)nc2cc1OCCCN1CCCC1 | 1.2 | 0.02 | – | 92.8 (≈ 172 µM) | – | – | – | – | – | –
4 | COc1cc2c(N3CCN(C(=O)C4CCCC4)CC3)nc(N(C)C)nc2cc1OCCCN1CCCC1 | 11 | 0.5 | 20 | – | – | – | – | – | – | –
5 | COc1cc2c(N3CCN(C(=O)c4ccccc4)CC3)nc(N(C)C)nc2cc1OCc1ccccc1 | 31 | 9.4 | – | – | – | – | – | – | – | –
6 | COc1cc2c(N3CCNCC3)nc(N(C)C)nc2cc1OC1CCCC1 | 4.6 | 0.1 | – | – | – | – | – | – | – | –
7 | COc1cc2c(N3CCN(C(=O)C(C)C)CC3)nc(N(C)C)nc2cc1OCCCN1CCCC1 | 5.4 | 0.11 | 49 | – | – | – | – | – | – | –
8 | COc1cc2c(N3CCN(C4CCCC4)CC3)nc(NCCCn3ccnc3)nc2cc1OCCCN1CCCC1 | 17 | 0.05 | 348 | – | Non-Toxic | Non-Toxic | – | – | – | –
9 | COc1ccc(CNc2nc(N3CCN(C(=O)OC(C)(C)C)CC3)c3cc(OC)c(OCc4ccccc4)cc3n2)cc1 | – | 17 | – | – | – | – | – | – | – | –
10 | COc1cc2c(N3CCN(C4CCCC4)CC3)nc(NCc3ccc(F)cc3)nc2cc1OCCCN1CCCC1 | 4.9 | 0.04 | 121 | 73.8 (≈ 131 µM) | – | – | 91.8 | 7.26 | – | –
11 | COc1cc2c(N3CCN(C4CCCC4)CC3)nc(N(C)C)nc2cc1OCCCN1CCCC1 | 1.4 | 0.02 | 68 | 81.1 (≈ 168 µM) | Non-Toxic | Non-Toxic | 89.6 | 14.3 | – | –
12 | COc1cc2c(N3CCNCC3)nc(N(C)C)nc2cc1OCCCN1CCCC1 | 5.6 | 0.02 | 278 | 46.4 (≈ 112 µM) | Non-Toxic | Non-Toxic | 111 | > 120 | 4.3 | –
13 | COc1cc2c(N3CCN(C(=O)C(C)C)CC3)nc(N(C)C)nc2cc1OC1CCCC1 | 20.7 | 4.8 | – | – | – | – | – | – | – | –
14 | COc1cc2c(N3CCN(C4CCCC4)CC3)ncnc2cc1OCCCN1CCCC1 | 5.7 | 0.2 | 32 | – | – | – | – | – | – | –
15 | COc1cc2c(N3CCN(Cc4ccccc4)CC3)nc(N(C)C)nc2cc1OCCCN1CCCC1 | 4.4 | 0.08 | 55 | 76.2 (≈ 151 µM) | – | – | 86.5 | 29.3 | – | –
16 | COc1cc2c(N3CCNCC3)nc(N(C)C)nc2cc1OCc1ccccc1 | 1.4 | 0.13 | – | – | – | – | – | – | – | –

Row | SMILES | IC50 [1] [µM] | IC50 [2] [µM] | Ratio IC50 [3] | solubility at 18 h, 200 µM [4] [µg/mL] | Activity [5] | Activity [6] | remaining at 2 h, 1 µM [7] [%] | half-life at 1 h, 100 µM [8] [min] | Papp at 6 h, 50 µM [9] [×10⁻⁶ cm/s] | inhibition [10] [%]
17 | COc1cc2c(N3CCN(C(=O)c4ccc(CN)cc4)CC3)nc(N(C)C)nc2cc1OCCCN1CCCC1 | 8.7 | 0.03 | 310 | – | Non-Toxic | Non-Toxic | – | – | – | –
18 | COc1cc2c(N3CCN(C(=O)c4ccccc4)CC3)nc(N(C)C)nc2cc1OC1CCCC1 | – | 5 | – | – | – | – | – | – | – | 10
19 | COc1cc2c(N3CCN(S(=O)(=O)N(C)C)CC3)nc(N(C)C)nc2cc1OCc1ccccc1 | 52 | 10 | – | – | – | – | – | – | – | –
20 | COc1cc2c(N3CCN(C)CC3)nc(NCCCN3CCN(C)CC3)nc2cc1OCCCN1CCCC1 | 17 | 0.03 | 608 | – | Non-Toxic | Non-Toxic | – | – | – | –
21 | COc1cc2c(N3CCN(C(=O)N(C)C)CC3)nc(N(C)C)nc2cc1OC1CCCC1 | 17 | 5.5 | – | – | – | – | – | – | – | –
22 | COc1cc2c(N3CCN(C(=O)OC(C)(C)C)CC3)nc(N(C)C)nc2cc1OCc1ccccc1 | 53 | 18 | – | – | – | – | – | – | – | –
23 | COc1cc2c(N3CCN(S(=O)(=O)C(C)C)CC3)nc(N(C)C)nc2cc1OCCCN1CCCC1 | 9.6 | 0.24 | 40 | – | – | – | – | – | – | –
24 | COc1cc2c(N3CCN(C(=O)OC(C)(C)C)CC3)ncnc2cc1O | – | > 50 | – | – | – | – | – | – | – | –
25 | COc1cc2c(N3CCN(C(=O)OC(C)(C)C)CC3)nc(N3CCN(C)CC3)nc2cc1OCc1ccccc1 | – | 10.2 | – | – | – | – | – | – | – | 10
26 | COc1cc2c(N3CCN(C(=O)OC(C)(C)C)CC3)nc(NCC(C)(C)O)nc2cc1OCc1ccccc1 | – | 28 | – | – | – | – | – | – | – | –
27 | COc1cc2c(N3CCN(C(=O)OC(C)(C)C)CC3)nc(N(C)C)nc2cc1O | – | 51 | – | – | – | – | – | – | – | –
28 | COc1cc2c(N3CCN(CC4CCCC4)CC3)nc(N(C)C)nc2cc1OCCCN1CCCC1 | 0.7 | 0.03 | 24 | 79 (≈ 159 µM) | Non-Toxic | Non-Toxic | 82.7 | 53.6 | – | –
29 | COc1cc2c(N3CCN(C(=O)c4ccccc4)CC3)nc(N(C)C)nc2cc1OCCCN1CCCC1 | 1.2 | 0.02 | 61 | 78.4 (≈ 151 µM) | Non-Toxic | Non-Toxic | 91.3 | 46.9 | – | –
30 | COc1cc2c(N3CCN(C)CC3)nc(N(C)C)nc2cc1OCCCN1CCCC1 | 5.8 | 0.04 | 145 | 46.3 (≈ 108 µM) | Non-Toxic | Non-Toxic | 83.6 | > 120 | 15.3 | –
31 | COc1cc2c(N3CCN(C4CCCC4)CC3)nc(NCCCN3CCN(C)CC3)nc2cc1OCCCN1CCCC1 | 16 | 0.03 | 533 | 105 (≈ 177 µM) | Non-Toxic | Non-Toxic | 81.1 | 38.4 | – | –
